Source: ChEMBL document CHEMBL5291721, “A preclinical secondary pharmacology resource illuminates target-adverse drug reaction associations of marketed drugs” (Nat Commun, 2023)

Columns and labels:
[1] = target: T1, Adenosine receptor A3 (Homo sapiens, UniProt P0DMS8)
T1 sequence (P0DMS8 whole entry): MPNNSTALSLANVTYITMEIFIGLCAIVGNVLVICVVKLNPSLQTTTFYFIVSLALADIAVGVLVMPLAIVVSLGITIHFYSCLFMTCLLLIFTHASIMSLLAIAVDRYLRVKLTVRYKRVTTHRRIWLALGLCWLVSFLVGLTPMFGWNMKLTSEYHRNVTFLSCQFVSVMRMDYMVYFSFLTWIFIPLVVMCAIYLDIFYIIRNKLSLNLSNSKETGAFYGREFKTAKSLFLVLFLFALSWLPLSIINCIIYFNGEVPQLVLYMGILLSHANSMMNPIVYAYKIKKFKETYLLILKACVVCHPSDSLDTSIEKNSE

[2] = target: T2, Muscarinic acetylcholine receptor M2 (Homo sapiens, UniProt P08172); format: functional, cell-based
T2 sequence (P08172 whole entry): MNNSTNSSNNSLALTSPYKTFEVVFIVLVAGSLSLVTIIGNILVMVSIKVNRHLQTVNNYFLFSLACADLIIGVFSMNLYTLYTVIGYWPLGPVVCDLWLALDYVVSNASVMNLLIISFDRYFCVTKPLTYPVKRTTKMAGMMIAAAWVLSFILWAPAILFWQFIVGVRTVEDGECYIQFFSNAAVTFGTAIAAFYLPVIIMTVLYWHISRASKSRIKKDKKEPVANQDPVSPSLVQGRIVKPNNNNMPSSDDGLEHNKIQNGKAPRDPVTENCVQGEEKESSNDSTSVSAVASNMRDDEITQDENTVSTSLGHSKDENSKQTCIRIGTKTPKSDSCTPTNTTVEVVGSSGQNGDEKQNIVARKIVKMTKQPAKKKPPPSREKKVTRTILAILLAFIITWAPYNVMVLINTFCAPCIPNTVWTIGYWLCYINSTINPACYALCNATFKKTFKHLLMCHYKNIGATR

[3] = target: T2, Muscarinic acetylcholine receptor M2; format: functional, cell-based; remark: listed apart in the source
[4] = target: Cannabinoid receptor 1 (Homo sapiens, UniProt P21554); format: functional, cell-based
Chain of Cannabinoid receptor 1 (P21554 whole entry): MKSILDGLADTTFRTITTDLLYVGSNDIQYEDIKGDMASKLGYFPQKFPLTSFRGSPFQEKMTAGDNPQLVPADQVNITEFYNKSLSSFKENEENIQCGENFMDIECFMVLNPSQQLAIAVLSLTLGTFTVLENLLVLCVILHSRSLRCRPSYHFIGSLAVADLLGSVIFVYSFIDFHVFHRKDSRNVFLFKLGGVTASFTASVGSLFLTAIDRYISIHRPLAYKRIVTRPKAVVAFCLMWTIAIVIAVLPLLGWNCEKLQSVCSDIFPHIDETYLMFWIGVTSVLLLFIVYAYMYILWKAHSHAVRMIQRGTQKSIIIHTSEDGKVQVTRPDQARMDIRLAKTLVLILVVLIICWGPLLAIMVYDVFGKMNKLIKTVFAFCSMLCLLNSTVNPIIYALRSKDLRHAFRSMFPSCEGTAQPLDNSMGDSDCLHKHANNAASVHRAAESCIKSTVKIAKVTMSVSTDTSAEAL

[5] = target: T3, Gamma-aminobutyric acid receptor subunit alpha-1 (Rattus norvegicus, UniProt P62813)
T3 sequence (P62813 whole entry): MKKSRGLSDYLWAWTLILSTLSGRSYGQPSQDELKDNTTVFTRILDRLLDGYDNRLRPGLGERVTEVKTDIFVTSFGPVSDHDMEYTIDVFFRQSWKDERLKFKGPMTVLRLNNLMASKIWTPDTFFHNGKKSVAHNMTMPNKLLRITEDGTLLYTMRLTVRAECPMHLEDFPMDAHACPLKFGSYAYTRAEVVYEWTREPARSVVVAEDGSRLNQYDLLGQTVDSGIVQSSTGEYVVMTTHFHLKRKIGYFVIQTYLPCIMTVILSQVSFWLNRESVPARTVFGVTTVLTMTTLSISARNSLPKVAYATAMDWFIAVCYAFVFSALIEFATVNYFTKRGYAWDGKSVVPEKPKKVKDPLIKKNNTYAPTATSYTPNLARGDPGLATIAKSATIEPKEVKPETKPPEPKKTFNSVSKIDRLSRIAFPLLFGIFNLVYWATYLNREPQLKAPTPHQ

[6] = target: T3, Gamma-aminobutyric acid receptor subunit alpha-1; format: functional
[7] = target: T4, Neuropeptide Y receptor type 1 (Homo sapiens, UniProt P25929)
T4 sequence (P25929 whole entry): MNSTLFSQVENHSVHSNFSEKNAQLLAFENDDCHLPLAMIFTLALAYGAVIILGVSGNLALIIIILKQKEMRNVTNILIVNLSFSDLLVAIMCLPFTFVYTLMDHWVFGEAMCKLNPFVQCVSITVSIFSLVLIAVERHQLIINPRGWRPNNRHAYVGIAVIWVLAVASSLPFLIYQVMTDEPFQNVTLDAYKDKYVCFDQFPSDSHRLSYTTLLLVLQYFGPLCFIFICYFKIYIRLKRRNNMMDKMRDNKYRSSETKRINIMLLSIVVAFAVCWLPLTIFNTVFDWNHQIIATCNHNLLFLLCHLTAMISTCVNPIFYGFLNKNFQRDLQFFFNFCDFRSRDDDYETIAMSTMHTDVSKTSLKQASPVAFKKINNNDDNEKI

[8] = target: T5, Glucocorticoid receptor (Homo sapiens, UniProt P04150)
T5 sequence (P04150 whole entry): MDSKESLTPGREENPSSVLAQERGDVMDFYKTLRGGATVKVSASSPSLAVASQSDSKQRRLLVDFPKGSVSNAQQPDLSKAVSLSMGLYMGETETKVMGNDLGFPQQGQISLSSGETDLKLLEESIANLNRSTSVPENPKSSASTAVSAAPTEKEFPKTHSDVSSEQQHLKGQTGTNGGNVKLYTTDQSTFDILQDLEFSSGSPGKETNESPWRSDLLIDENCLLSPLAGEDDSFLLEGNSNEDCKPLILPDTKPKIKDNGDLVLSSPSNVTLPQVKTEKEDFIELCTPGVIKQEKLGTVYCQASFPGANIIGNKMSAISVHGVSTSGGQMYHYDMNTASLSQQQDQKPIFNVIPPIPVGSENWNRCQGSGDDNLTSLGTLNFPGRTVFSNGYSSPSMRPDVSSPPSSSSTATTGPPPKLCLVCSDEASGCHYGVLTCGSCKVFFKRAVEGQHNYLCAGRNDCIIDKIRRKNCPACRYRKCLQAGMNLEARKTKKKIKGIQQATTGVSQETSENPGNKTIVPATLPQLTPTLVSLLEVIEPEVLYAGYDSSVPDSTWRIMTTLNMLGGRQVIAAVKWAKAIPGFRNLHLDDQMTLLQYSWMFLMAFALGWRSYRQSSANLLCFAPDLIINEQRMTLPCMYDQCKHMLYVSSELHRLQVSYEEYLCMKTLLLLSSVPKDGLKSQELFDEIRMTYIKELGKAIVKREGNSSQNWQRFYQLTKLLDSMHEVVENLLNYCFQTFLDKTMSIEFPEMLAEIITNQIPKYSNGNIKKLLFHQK

[9] = target: Delta-type opioid receptor (Homo sapiens, UniProt P41143)
Chain of Delta-type opioid receptor (P41143 whole entry): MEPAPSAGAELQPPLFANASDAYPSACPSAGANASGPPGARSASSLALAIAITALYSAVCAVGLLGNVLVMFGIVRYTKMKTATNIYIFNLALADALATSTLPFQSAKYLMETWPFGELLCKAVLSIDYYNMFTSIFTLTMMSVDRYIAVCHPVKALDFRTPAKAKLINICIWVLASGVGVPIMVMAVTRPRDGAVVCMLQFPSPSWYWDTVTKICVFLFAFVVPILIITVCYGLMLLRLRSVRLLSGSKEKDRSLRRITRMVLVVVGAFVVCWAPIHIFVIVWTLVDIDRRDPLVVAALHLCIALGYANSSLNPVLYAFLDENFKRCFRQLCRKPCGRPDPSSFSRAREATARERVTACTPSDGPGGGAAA

[10] = target: 3',5'-cyclic-AMP phosphodiesterase 4D (Homo sapiens, UniProt Q08499); format: functional
Chain of 3',5'-cyclic-AMP phosphodiesterase 4D (Q08499 whole entry): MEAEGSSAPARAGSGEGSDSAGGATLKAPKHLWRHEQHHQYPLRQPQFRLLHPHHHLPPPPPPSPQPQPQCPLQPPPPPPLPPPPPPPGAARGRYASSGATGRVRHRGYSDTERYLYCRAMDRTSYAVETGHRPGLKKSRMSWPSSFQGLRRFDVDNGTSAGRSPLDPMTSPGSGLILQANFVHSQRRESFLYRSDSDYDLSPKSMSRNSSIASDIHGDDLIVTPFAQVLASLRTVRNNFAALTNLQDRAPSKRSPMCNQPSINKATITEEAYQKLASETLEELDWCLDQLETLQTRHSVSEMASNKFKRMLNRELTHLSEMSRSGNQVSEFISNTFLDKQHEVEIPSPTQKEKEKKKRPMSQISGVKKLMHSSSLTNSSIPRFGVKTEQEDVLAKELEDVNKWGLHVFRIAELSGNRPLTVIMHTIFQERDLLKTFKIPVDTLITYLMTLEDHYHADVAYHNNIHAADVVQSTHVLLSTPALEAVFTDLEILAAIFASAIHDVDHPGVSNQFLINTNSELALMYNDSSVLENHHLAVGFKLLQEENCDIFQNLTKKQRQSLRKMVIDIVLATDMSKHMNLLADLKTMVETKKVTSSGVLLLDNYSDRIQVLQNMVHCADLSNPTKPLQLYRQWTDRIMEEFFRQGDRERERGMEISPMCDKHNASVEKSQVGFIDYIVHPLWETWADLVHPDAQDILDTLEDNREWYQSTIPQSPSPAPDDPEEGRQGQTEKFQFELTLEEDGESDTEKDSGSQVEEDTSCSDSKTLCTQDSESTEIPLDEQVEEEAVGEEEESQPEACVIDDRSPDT

[11] = target: T6, Thromboxane A2 receptor (Homo sapiens, UniProt P21731)
T6 sequence (P21731 whole entry): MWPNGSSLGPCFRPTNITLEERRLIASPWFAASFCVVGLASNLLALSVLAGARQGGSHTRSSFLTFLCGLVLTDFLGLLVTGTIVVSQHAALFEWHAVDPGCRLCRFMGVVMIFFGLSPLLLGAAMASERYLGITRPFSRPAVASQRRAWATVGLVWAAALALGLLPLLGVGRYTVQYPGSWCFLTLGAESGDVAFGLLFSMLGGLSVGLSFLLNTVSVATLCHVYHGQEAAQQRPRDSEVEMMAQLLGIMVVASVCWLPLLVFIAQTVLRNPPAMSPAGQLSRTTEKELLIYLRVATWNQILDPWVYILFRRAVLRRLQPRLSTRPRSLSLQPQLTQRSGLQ

[12] = target: Sodium-dependent dopamine transporter (Homo sapiens, UniProt Q01959)
Chain of Sodium-dependent dopamine transporter (Q01959 whole entry): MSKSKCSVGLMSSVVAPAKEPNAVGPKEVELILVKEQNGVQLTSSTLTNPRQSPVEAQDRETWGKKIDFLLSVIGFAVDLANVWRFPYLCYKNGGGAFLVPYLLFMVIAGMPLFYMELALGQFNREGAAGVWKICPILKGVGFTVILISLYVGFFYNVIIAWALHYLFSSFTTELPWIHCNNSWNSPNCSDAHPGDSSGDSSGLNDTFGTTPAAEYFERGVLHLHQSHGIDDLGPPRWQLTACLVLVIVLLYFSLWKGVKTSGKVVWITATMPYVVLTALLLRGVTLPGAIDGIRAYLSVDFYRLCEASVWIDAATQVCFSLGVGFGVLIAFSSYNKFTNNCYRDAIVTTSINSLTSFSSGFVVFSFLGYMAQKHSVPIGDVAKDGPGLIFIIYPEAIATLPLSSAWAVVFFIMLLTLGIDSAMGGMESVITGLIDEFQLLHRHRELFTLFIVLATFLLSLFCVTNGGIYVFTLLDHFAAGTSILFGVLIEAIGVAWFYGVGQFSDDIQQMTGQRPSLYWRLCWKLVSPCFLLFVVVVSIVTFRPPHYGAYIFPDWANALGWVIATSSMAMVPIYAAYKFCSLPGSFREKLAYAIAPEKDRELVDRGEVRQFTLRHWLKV
Also: assay procedure not described here.

SMILES | AC50 [1] [µM] | AC50 [2] [µM] | AC50 [3] [µM] | AC50 [4] [µM] | AC50 [5] [µM] | AC50 [6] [µM] | AC50 [7] [µM] | AC50 [8] [µM] | AC50 [9] [µM] | AC50 [10] [µM] | AC50 [11] [µM] | AC50 [12] [µM]
COc1ccc2c(c1)c(CC(=O)OCC(=O)O)c(C)n2C(=O)c1ccc(Cl)cc1 [ACEMETACIN] | > 30 | > 30 | > 30 | > 30 | > 30 | > 30 | > 30 | > 30 | > 30 | > 30 | > 30 | > 30
CC(C)c1c(C(=O)Nc2ccccc2)c(-c2ccccc2)c(-c2ccc(F)cc2)n1CC[C@@H](O)C[C@@H](O)CC(=O)O [ATORVASTATIN] | > 30 |  |  | > 30 | > 10 | > 10 | > 30 |  | > 30 | > 30 | > 30 | 
CN1C(=O)COc2c(C(=O)NC3CN4CCC3CC4)cc(Cl)cc21 (stereo not given) [AZASETRON] | > 30 | > 30 | > 30 | > 30 | > 30 | > 30 | > 30 |  | > 30 | 4.1 | > 30 | > 30
CCCCN1CCCCC1C(=O)Nc1c(C)cccc1C (stereo not given) [BUPIVACAINE] | > 30 | > 30 | > 30 | > 30 | > 30 | > 30 | > 30 |  | > 30 | > 30 | > 30 | > 30
CC(=O)O[C@@]12CO[C@@H]1C[C@H](O)[C@@]1(C)C(=O)[C@H](O)C3=C(C)[C@@H](OC(=O)[C@H](O)[C@@H](NC(=O)OC(C)(C)C)c4ccccc4)C[C@@](O)([C@@H](OC(=O)c4ccccc4)[C@H]21)C3(C)C [DOCETAXEL ANHYDROUS] | > 30 | > 30 | > 30 |  | > 30 | > 30 | > 30 | > 30 | > 30 | > 30 | > 30 | > 30
CCNC(C)Cc1cccc(C(F)(F)F)c1 (stereo not given) [FENFLURAMINE] | > 30 | > 30 | > 30 | > 30 | > 10 | > 10 | > 30 | > 30 | > 30 | > 30 | > 30 | 
COc1c(N2CCNC(C)C2)c(F)cc2c(=O)c(C(=O)O)cn(C3CC3)c12 (stereo not given) [GATIFLOXACIN] | > 10 | > 10 | > 10 |  | > 10 | > 10 | > 10 | > 10 | > 30 | > 30 | > 10 | > 10
CCN1CCC[C@H]1CNC(=O)c1cc(S(N)(=O)=O)ccc1OC [LEVOSULPIRIDE] | > 30 | > 10 | > 10 | > 30 | > 10 | > 10 |  | > 30 | > 30 | > 30 | > 30 | > 30
Cc1cccc(C)c1NC(=O)C1CCCCN1C (stereo not given) [MEPIVACAINE] | > 30 | > 30 | > 30 | > 30 |  | > 30 | > 30 | > 30 | > 30 | > 30 |  | > 30
COc1ccccc1OCC(O)COC(N)=O (stereo not given) [METHOCARBAMOL] | > 10 | > 10 | > 10 |  | > 10 | > 10 | > 10 | > 30 | > 30 | > 30 | > 10 | > 10
NC(=O)C[S+]([O-])C(c1ccccc1)c1ccccc1 (stereo not given) [MODAFINIL] | 13.4 | > 10 | > 10 | > 30 | > 10 | > 10 | > 30 | > 30 | > 10 | > 30 | > 30 | 
CCN(CC)CCOC(=O)c1ccc(N)cc1 [PROCAINE] | > 30 | > 10 | > 10 | > 30 | > 10 | > 10 | > 30 |  | > 30 | > 10 |  | > 30
CCCOc1ccc(C(=O)OCCN(CC)CC)cc1N [PROPARACAINE] | > 30 | > 30 | > 30 | > 30 |  | > 30 | > 30 | > 30 | > 30 | > 30 |  | > 30
Nc1nc2ccc(OC(F)(F)F)cc2s1 [RILUZOLE] | > 30 | > 30 | > 30 | > 30 |  | > 30 | > 30 | > 30 | > 30 | 14 |  | > 30
CN[C@@H]1[C@H](O)[C@H](NC)[C@H]2O[C@@]3(O)C(=O)C[C@@H](C)O[C@H]3O[C@@H]2[C@H]1O [SPECTINOMYCIN] | > 10 | > 10 | > 10 |  | > 10 | > 10 | > 10 | > 10 | > 30 | > 30 | > 10 | > 10
CC[C@]1(O)C[C@@H]2CN(CCc3c([nH]c4ccccc34)[C@@](C(=O)OC)(c3cc4c(cc3OC)N(C)[C@H]3[C@@](O)(C(N)=O)[C@H](O)[C@]5(CC)C=CCN6CC[C@]43[C@@H]65)C2)C1 [VINDESINE] | > 30 | > 30 | > 30 |  | > 30 | > 30 | > 30 | > 30 | > 30 | > 30 | > 30 | > 30
